We go through 1 compound from US20240148743A1, “USES OF MELANOCORTIN-4 RECEPTOR AGONIST” (LG CHEM, LTD., priority 2021, published 2024).

The assay concerns db/db mice. The assay is described as follows: db/db mouse model experiment (leptin receptor-deficient genetic obesity model, 45 kcal % high-fat diet). The class given is in vivo. Here is the method: To confirm anti-obesity efficacy, N-((3S,5S)-1-((3S,4R)-1-(tert-butyl)-4-(4-chlorophenyl)pyrrolidine-3-carbonyl)-5- (morpholine-4 -carbonyl)pyrrolidin-3-yl)-N-((1s ,4R)-4-methylcyclohexyl)isobutyramide hydrochloride (hereinafter referred to as “Test Compound”) obtained in the Preparation Example was administered repeatedly for 4 weeks while feeding 45 kcal % high-fat diet (diet with 45 kcal % fat) to db/db mice which is a genetic obesity mouse model in which a mutation in the leptin receptor associated with the MC4R pathway occurred. The weight gain inhibitory effect was confirmed by measuring the body weight during the administration period, and the body fat mass reduction effect was confirmed by measuring the total body fat mass after repeated administration for 4 weeks. […] The results are represented in FIG. 1.

[1] abbreviates: body fat analysis after repeated administration for 4 weeks, compared to the negative control group.
The mark [2] stands for this setting: db/db mice on 45 kcal % high-fat diet, repeated administration for 4 weeks, compared to the negative control group.

On to `CC(C)C(=O)N([C@H]1C[C@@H](C(=O)N2CCOCC2)N(C(=O)[C@@H]2CN(C(C)(C)C)C[C@H]2c2ccc(Cl)cc2)C1)[C@H]1CC[C@@H](C)CC1.Cl` [Test Compound, N-((3S,5S)-1-((3S,4R)-1-(tert-butyl)-4-(4-chlorophenyl)pyrrolidine-3-carbonyl)-5-(morpholine-4-carbonyl)pyrrolidin-3-yl)-N-((1s ,4R)-4-methylcyclohexyl)isobutyramide hydrochloride], for which, under setting [1], the fat mass entry is given as “significantly decreased” and the fat-free mass entry is given as “no difference”. Under setting [2], the body weight entry was “significantly reduced” and the weight gain rate entry is “significantly decreased”. In addition, under “leptin receptor-deficient mouse model (db/db), FIG. 1”, the weight loss effect entry was “significant weight loss effect”.
